Measured values reported in article PMC6759494 (Tetrahedron, 2019).

Biological target: peptide deformylase (EcPDF) (Escherichia coli, UniProt P0A6K3)
Assay: coupled colorimetric assay
Type: biochemical

peptide deformylase (EcPDF), sequence (P0A6K3 2-169): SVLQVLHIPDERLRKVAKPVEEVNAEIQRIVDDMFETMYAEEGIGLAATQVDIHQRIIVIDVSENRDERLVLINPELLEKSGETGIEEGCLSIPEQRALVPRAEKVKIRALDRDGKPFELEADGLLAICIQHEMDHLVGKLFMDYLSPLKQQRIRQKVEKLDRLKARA

Compound | % inhibition at 4 μM | inhibition at 4 µM (read-out: % inhibition at 4 μM) [%]
Dimethoxy-fumimycin hydroxamic acid [17f] | ~ 20 | –
C/C=C/c1c(O)c(O)cc2c1[C@@](C)(NC(=O)/C=C/C(=O)O)C(=O)O2 (racemic) [compound 1, (±)-fumimycin] | ~ 20 | –
CCCCC[C@H](CC(=O)NO)C(=O)N[C@H](C(=O)N1CCC[C@H]1CO)C(C)C [compound 2, actinonin] | – | ~95
Dimethoxy-fumimycin methyl ester [17b] | ~ 20 | –
Fumimycin Weinreb amide [17h] | ~ 16 | –
